In ChEMBL document CHEMBL1130750, “Heteroatom-substitution as a strategy for increasing the potency of competitive NMDA antagonists” (Bioorg Med Chem Lett, 1998):

How the values were obtained:
[1] = molecular target: T1, Glutamate NMDA receptor (Rattus norvegicus) (UniProt P35439+Q00959+Q00960+Q00961+Q62645+Q8VHN2+Q9R1M7); assay: In vitro percent inhibition of depolarizations induced by 3.2 uM NMDA in a cortical slice ( NMDA antagonist); format: functional
Glutamate NMDA receptor [2] = assay: Compound was tested in vitro for inhibition of binding of [3H]-CGS- 19755 radioligand to NMDA receptor in rat brain membranes; format: cell membranes
[3] = molecular target: T1, Glutamate NMDA receptor (Rattus norvegicus); assay: In vitro percent inhibition of depolarizations induced by 10 uM NMDA in a cortical slice (NMDA antagonist); format: functional
Glutamate NMDA receptor [4] = assay: Compound was tested in vitro for its ability to inhibit depolarizations induced by 40 uM NMDA in a cortical slice (NMDA antagonist); format: functional
Mus musculus = assay: In vivo minimum effective dose required to block NMDA induced lethality in Mice following i.p. administration; format: functional; conditions: ip, read-out: MED
Glutamate NMDA receptor [5] = assay: Compound was tested in vitro for its ability to inhibit depolarizations induced by 40 uM NMDA in a cortical slice(NMDA antagonist); format: functional
Glutamate NMDA receptor [6] = assay: In vitro ability to inhibit depolarizations induced by 40 uM NMDA in a cortical slice (NMDA antagonist); format: functional

Row | Compound | IC50 (Glutamate NMDA receptor [2]) | minimal effective dose (Mus musculus) | also measured
1 | O=C(O)[C@H]1C[C@H](Sc2nn[nH]n2)CCN1 | 0.075 µM |  | inhibition [1]: 20%; inhibition [3]: 75%
2 | O=C(O)[C@H]1C[C@@H](CSc2nn[nH]n2)CCN1 | 1.3 µM |  | 
3 | O=C(O)[C@H]1C[C@@H](COCc2nn[nH]n2)CCN1 | 8.3 µM | 80 mg/kg | IC50 (Glutamate NMDA receptor [4]): 34.5 µM
4 | O=C(O)[C@H]1C[C@@H](CCc2nnn[nH]2)CCN1 | 2.3 µM | 20 mg/kg | IC50 (Glutamate NMDA receptor [5]): 8.1 µM
5 | O=C(O)[C@H]1C[C@@H](CCCc2nnn[nH]2)CCN1 |  | 10 mg/kg | IC50 (Glutamate NMDA receptor [6]): 12.4 µM
6 | O=C(O)[C@H]1C[C@@H](Cc2nnn[nH]2)CCN1 | 0.017 µM | 5 mg/kg | 
7 | O=C(O)[C@H]1C[C@@H](Sc2nn[nH]n2)CCN1 | 0.11 µM |  | 
8 | O=C(O)[C@H]1C[C@@H](OCc2nn[nH]n2)CCN1 | 0.28 µM | 2.5 mg/kg | IC50 (Glutamate NMDA receptor [4]): 4.7 µM
